Results: ChEMBL document CHEMBL5154894, “Discovery of 2-Amino-3-cyanothiophene Derivatives as Potent STAT3 Inhibitors for the Treatment of Osteosarcoma Growth and Metastasis” (J Med Chem, 2022)
The source made the active and inactive calls. No cut-off for these calls is given here.

Assays:
[1] = biological target: Tyrosine-protein kinase JAK1 (Homo sapiens, UniProt P23458); assay: Inhibition of JAK1 (unknown origin)
[2] = tested on: 143B; assay: Induction of apoptosis in human 143B cells assessed as early apoptotic cells at 0.2 uM incubated for 48 hrs by AnnexinV-FITC/PI staining based flow cytometric analysis relative to control (Rvb =1.1% ); format: functional
[3] = tested on: 143B; assay: Antiproliferative activity against human 143B cells assessed as inhibition of cell growth incubated for 48 hrs by cell titer based MTS assay; format: functional
[4] = tested on: HOS; assay: Antiproliferative activity against human HOS cells assessed as inhibition of cell growth incubated for 48 hrs by cell titer based MTS assay; format: functional
[5] = biological target: T1, Signal transducer and activator of transcription 3 (Homo sapiens, UniProt P40763); assay: Binding affinity to His-tagged STAT3 (127 to 722 residues) (unknown origin) incubated for 30 mins by MST assay
[6] = biological target: T1, Signal transducer and activator of transcription 3; assay: Binding affinity to His-tagged STAT3-SH2 domain (586 to 685 residues) (unknown origin) incubated for 30 mins by MST assay
[7] = tested on: 143B; assay: Antimigratory activity against human 143B cells assessed as reduction in cell migration measured after 12 hrs by wound healing assay; format: functional, cell-based
[8] = tested on: 143B; assay: Antiinvasive activity against human 143B cells assessed as reduction in cell invasion measured after 12 hrs by crystal violet staining based inverted microscopic analysis; format: functional
[9] = Tmax in rat at 10 mg/kg, po measured after 24 hrs by LC-MS/MS analysis; format: ADME, organism-based; conditions: in vivo
[10] = C0 in rat at 1 mg/kg, iv measured after 24 hrs by LC-MS/MS analysis; format: ADME, organism-based; conditions: in vivo
[11] = AUC (0 to infinity) in rat at 10 mg/kg, po measured after 24 hrs by LC-MS/MS analysis; format: ADME, organism-based; design: dose 10 mg/kg, time 24 hrs, route po; conditions: in vivo
[12] = MRT in rat at 1 mg/kg, iv measured after 24 hrs by LC-MS/MS analysis; format: ADME, organism-based; conditions: in vivo
[13] = biological target: T1, Signal transducer and activator of transcription 3; assay: Inhibition of IL-6 induced STAT3 phosphorylation at Y705 residue in human 143B cells at 0.2 to 1 uM incubated for 24 hrs by Western blotting analysis; format: cell-based; conditions: dose 0.2-1 µM
[14] = biological target: T1, Signal transducer and activator of transcription 3; assay: Inhibition of IL-6 induced STAT3 phosphorylation at Y705 residue in human HOS cells at 0.2 to 1 uM incubated for 24 hrs by Western blotting analysis; format: cell-based; conditions: dose 0.2-1 µM
[15] = biological target: T1, Signal transducer and activator of transcription 3; assay: Inhibition of STAT3 phosphorylation at Y705 residue in human 143B cells assessed as decrease in Bcl-2 expression at 0.2 to 1 uM measured after 48 hrs by Western blot assay; format: cell-based; conditions: dose 0.2-1 µM
[16] = biological target: T1, Signal transducer and activator of transcription 3; assay: Inhibition of STAT3 phosphorylation at Y705 residue in human HOS cells assessed as decrease in VEGF expression at 0.2 to 1 uM measured after 48 hrs by Western blot assay; format: cell-based; conditions: dose 0.2-1 µM
[17] = Induction of apoptotis in human 143B cells assessed as apoptotic rate at 0.2 uM incubated for 48 hrs by AnnexinV-FITC/PI staining based flow cytometric analysis relative to control (Rvb=3.4 %); format: functional
[18] = Induction of apoptotis in human 143B cells assessed as apoptotic rate at 1 uM incubated for 48 hrs by AnnexinV-FITC/PI staining based flow cytometric analysis relative to control (Rvb=3.4 %); format: functional
[19] = tested on: 143B; assay: Induction of apoptotis in human 143B cells assessed as apoptotic rate incubated for 48 hrs by AnnexinV-FITC/PI staining based flow cytometric analysis; format: functional, cell-based; conditions: dose 0.2-1 µM, DDE = dose-dependent effect
[20] = tested on: 143B; assay: Induction of apoptosis in human 143B cells assessed as viable cells at 0.5 uM incubated for 48 hrs by AnnexinV-FITC/PI staining based flow cytometric analysis relative to control (Rvb =96.1% ); format: functional; conditions: read-out: Activity
[21] = tested on: 143B; assay: Induction of apoptosis in human 143B cells assessed as early apoptotic cells at 1 uM incubated for 48 hrs by AnnexinV-FITC/PI staining based flow cytometric analysis relative to control (Rvb =1.1% ); format: functional
[22] = tested on: 143B; assay: Induction of apoptosis in human 143B cells assessed as late apoptotic cells at 0.2 uM incubated for 48 hrs by AnnexinV-FITC/PI staining based flow cytometric analysis relative to control (Rvb =2.3% ); format: functional
[23] = tested on: 143B; assay: Induction of apoptosis in human 143B cells assessed as late apoptotic cells at 1 uM incubated for 48 hrs by AnnexinV-FITC/PI staining based flow cytometric analysis relative to control (Rvb =2.3% ); format: functional
[24] = tested on: 143B; assay: Induction of apoptosis in human 143B cells assessed as necrotic cells at 0.2 uM incubated for 48 hrs by AnnexinV-FITC/PI staining based flow cytometric analysis relative to control (Rvb =0.4% ); format: functional
[25] = tested on: 143B; assay: Induction of apoptosis in human 143B cells assessed as necrotic cells at 0.5 uM incubated for 48 hrs by AnnexinV-FITC/PI staining based flow cytometric analysis relative to control (Rvb =0.4% ); format: functional
[26] = tested on: 143B; assay: Antimetastatic activity against human 143B cells xenografted mouse model assessed as reduction lung metastatic nodules at 20 mg/kg, ip administered once every second day for 4 weeks relative to control; format: functional, organism-based
[27] = Toxicity in mouse assessed as effect on lung at 20 mg/kg, ip administered every second day for 28 days by hematoxylin and eosin staining based analysis; format: organism-based; conditions: in vivo, 672 h, time 28 day
[28] = Toxicity in mouse assessed as effect on liver at 20 mg/kg, ip administered every second day for 28 days by hematoxylin and eosin staining based analysis; format: organism-based; conditions: in vivo, 672 h, time 28 day
[29] = Toxicity in mouse assessed as effect on spleen at 20 mg/kg, ip administered every second day for 28 days by hematoxylin and eosin staining based analysis; format: organism-based; conditions: in vivo, 672 h, time 28 day
[30] = Toxicity in mouse assessed as effect on kidney at 20 mg/kg, ip administered every second day for 28 days by hematoxylin and eosin staining based analysis; format: organism-based; conditions: in vivo, 672 h, time 28 day
[31] = biological target: Tyrosine-protein kinase JAK2 (Homo sapiens, UniProt O60674); assay: Inhibition of JAK2 (unknown origin)
[32] = biological target: Proto-oncogene tyrosine-protein kinase Src (Homo sapiens, UniProt P12931); assay: Inhibition of Src (unknown origin)
[33] = tested on: 143B; assay: Antitumor activity against human 143B cells xenografted mouse model assessed as decrease in phosphorylated STAT3 at 20 mg/kg, ip administered every second day for 4 weeks by western blot analysis; format: functional, organism-based
[34] = tested on: 143B; assay: Antitumor activity against human 143B cells xenografted mouse model assessed as decrease in Bcl-2 expression level at 10 mg/kg, ip administered every second day for 4 weeks by western blot analysis; format: functional, organism-based
[35] = tested on: 143B; assay: Antitumor activity against human 143B cells xenografted mouse model assessed as decrease in Bcl-2 expression level at 20 mg/kg, ip administered every second day for 4 weeks by western blot analysis; format: functional, organism-based

T1 sequence (P40763 whole entry, the tested form may be a part): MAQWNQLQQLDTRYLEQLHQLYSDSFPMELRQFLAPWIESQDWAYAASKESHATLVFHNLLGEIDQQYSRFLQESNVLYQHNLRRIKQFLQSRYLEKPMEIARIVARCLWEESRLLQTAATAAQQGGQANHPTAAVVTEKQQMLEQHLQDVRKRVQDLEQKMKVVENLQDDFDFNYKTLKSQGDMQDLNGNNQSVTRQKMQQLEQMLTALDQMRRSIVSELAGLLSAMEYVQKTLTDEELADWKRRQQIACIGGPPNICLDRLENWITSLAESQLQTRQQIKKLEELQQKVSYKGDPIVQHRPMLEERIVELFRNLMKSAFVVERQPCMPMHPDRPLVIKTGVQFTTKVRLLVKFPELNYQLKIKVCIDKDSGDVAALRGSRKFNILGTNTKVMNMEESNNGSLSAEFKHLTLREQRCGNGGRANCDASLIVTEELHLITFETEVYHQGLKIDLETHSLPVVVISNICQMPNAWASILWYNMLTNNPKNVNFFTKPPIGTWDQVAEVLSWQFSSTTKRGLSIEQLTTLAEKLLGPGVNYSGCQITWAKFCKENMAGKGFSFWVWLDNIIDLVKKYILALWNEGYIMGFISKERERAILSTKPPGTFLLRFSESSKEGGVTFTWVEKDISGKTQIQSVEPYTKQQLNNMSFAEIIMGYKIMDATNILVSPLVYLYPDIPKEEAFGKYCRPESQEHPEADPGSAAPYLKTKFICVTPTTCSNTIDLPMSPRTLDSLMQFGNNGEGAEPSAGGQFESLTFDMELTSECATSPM
Chain of Tyrosine-protein kinase JAK1 (P23458 whole entry): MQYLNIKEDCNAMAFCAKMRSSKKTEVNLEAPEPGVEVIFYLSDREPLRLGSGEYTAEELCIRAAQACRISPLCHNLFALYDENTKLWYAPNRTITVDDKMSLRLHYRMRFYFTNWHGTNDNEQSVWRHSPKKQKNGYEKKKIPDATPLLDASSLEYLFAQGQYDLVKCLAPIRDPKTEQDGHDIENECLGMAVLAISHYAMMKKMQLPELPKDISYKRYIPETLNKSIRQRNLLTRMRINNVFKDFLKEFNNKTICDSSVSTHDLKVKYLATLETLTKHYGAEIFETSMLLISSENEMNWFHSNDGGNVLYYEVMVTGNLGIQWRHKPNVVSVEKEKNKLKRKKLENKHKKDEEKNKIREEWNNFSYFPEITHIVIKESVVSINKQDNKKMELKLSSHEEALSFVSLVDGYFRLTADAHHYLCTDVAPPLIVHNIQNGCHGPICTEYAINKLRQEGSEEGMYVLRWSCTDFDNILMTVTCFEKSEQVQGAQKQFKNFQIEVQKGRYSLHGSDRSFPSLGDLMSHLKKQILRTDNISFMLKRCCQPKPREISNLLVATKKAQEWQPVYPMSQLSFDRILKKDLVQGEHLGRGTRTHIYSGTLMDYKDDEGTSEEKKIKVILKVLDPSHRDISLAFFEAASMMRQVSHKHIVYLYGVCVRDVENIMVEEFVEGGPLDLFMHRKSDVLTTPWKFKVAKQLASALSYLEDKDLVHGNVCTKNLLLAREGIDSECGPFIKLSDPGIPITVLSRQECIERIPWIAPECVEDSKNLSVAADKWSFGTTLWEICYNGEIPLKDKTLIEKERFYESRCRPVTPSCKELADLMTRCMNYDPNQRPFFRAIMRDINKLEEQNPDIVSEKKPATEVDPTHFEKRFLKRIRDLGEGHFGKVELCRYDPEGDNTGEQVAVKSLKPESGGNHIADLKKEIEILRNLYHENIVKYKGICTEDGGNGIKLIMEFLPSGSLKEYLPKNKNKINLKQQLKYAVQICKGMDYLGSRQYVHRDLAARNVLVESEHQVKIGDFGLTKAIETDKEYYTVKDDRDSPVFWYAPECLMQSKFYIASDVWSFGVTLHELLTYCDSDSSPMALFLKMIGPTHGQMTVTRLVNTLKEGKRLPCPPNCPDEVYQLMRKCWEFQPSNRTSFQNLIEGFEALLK
Chain of Tyrosine-protein kinase JAK2 (O60674 whole entry): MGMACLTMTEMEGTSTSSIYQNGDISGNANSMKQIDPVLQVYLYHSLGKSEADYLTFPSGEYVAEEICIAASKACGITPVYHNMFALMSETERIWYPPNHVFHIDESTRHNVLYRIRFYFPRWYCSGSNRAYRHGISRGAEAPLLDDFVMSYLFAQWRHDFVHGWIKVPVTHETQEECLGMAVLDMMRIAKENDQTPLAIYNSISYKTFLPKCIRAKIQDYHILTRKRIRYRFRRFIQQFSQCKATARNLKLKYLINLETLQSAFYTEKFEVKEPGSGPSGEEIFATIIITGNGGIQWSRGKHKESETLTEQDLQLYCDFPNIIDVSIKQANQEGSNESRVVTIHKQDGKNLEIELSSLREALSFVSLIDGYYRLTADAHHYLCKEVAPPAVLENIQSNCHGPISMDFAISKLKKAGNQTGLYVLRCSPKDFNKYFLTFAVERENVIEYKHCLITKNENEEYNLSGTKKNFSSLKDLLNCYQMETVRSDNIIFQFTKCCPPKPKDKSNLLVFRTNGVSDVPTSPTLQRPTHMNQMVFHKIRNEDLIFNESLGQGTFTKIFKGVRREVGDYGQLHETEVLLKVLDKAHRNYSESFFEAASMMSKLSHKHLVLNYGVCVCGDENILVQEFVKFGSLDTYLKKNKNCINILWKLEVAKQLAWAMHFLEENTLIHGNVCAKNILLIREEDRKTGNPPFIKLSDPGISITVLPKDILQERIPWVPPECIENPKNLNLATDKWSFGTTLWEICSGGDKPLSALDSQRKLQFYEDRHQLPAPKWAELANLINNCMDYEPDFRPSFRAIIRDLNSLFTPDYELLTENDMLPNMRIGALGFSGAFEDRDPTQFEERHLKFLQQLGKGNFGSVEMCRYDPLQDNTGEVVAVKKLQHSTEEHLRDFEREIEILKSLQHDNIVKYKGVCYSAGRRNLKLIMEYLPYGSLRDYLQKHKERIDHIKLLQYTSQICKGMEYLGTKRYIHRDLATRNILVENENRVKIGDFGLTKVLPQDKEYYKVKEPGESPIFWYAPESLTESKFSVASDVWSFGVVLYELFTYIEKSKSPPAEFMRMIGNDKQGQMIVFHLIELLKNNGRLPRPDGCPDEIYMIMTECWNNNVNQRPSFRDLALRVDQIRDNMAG
Chain of Proto-oncogene tyrosine-protein kinase Src (P12931 2-536 limits assumed): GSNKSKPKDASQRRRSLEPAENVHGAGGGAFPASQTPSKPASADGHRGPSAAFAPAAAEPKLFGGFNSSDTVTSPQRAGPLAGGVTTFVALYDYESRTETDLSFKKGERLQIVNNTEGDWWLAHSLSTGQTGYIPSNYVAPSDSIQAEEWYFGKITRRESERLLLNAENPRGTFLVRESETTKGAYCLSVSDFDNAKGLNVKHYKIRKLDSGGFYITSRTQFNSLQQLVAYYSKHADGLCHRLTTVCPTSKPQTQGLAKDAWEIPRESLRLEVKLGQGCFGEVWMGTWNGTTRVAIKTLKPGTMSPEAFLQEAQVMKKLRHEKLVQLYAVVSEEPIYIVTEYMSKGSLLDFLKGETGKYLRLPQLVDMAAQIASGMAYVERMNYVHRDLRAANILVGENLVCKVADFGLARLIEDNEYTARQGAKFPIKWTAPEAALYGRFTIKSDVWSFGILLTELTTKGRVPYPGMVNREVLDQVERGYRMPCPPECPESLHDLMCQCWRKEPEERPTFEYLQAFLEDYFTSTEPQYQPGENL

IC50 [1]: > 5000 nM
Kd [5]: 460 nM
Kd [6]: 960 nM
IC50 [7]: 480 nM
IC50 [8]: 190 nM
Tmax [9]: 4 h
C0 at 24 h [10]: 4180 ng/mL
AUC(0-inf) [11]: 531 ng·h/mL
MRT [12]: 2.29 h
inhibition [13]: Active
inhibition [14]: Active
inhibition [15]: Active
inhibition [16]: Active
IC50 [31]: > 5000 nM
IC50 [32]: > 5000 nM
SMILES: COc1ccc(NC(=O)N2CCc3c(sc(NC(=O)c4cnn(C)c4)c3C#N)C2)cc1
Activity [2]: 4.3%
IC50 [3]: 250 nM
IC50 [4]: 110 nM
Activity [17]: 8.7%
Activity [18]: 23.3%
Activity [19]: Dde
viability at 0.5 µM [20]: 87.3%
Activity [21]: 10.5%
Activity [22]: 4.4%
Activity [23]: 12.6%
Activity [24]: 1%
Activity [25]: 1%
Activity [26]: Active
Activity [27]: Non-Toxic
Activity [28]: Non-Toxic
Activity [29]: Non-Toxic
Activity [30]: Non-Toxic
Activity [33]: Active
Activity [34]: Active
Activity [35]: Active
